Test results: publication PMC7646549, “Novel piperidine derivatives as colchicine binding site inhibitors induce apoptosis and inhibit epithelial-mesenchymal transition against prostate cancer PC3 cells” (Journal of Enzyme Inhibition and Medicinal Chemistry, 2020)
pIC50: −log10 of the molar value.

System: T1, tubulin (β-tubulin, colchicine binding site)
T1 construct: gene TUBB; with α-tubulin
Assay: in vitro tubulin polymerisation assay; supported by EBI competition assay (β-tubulin adduct) in PC3 cells
Type: biochemical

pIC50: 5.69
SMILES: COc1ccc(CN(C(=O)CN2C(=O)CCCC2=O)c2cc(OC)c(OC)c(OC)c2)cc1 [17a, 2–(2,6-Dioxopiperidin-1-yl)-N-(4-methoxybenzyl)-N-(3,4,5-trimethoxyphenyl) acetamide]
